One assay addresses T1, Tg DHFR (Toxoplasma gondii, UniProt Q07422).
T1 sequence (Q07422 1-610): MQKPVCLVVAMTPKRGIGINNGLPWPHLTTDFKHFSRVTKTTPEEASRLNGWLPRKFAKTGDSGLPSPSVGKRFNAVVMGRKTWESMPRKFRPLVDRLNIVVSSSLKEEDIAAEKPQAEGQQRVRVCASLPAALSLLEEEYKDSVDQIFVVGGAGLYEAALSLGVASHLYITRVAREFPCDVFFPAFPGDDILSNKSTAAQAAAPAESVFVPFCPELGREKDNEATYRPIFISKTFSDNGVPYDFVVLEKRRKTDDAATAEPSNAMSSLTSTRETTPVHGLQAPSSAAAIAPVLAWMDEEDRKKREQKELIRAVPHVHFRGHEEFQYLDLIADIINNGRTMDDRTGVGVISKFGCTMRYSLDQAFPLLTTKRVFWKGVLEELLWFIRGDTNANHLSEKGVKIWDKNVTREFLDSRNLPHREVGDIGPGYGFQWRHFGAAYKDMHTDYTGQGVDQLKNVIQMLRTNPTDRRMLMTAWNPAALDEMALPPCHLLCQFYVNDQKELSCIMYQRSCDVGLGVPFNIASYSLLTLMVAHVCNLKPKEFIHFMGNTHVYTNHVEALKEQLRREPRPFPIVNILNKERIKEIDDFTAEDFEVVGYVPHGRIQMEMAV
The assay is described as follows: biochemical. The class given is biochemical. The note with it: for rl/tg: selectivity ratio. On the procedure:
(§1) The selectivity ratio is a measure of the selectivity of a compound for Pc DHFR or Tg DHFR and is expressed as the IC50 value of the DHFR from rate liver (RL) divided by the IC50 value of either the Pc DHFR or the Tg DHFR, depending on which organism the compounds are being tested against. For example, the selectivity ratio of a compound is calculated by the following formula: [formula]

A further assay has as its target T2, RL DHFR (Rattus norvegicus, UniProt Q920D2).
T2 construct: Toxoplasmosis gondii (Tg) and rat liver (RL); from tissue; host or cells: rat liver
T2 sequence (Q920D2 1-187): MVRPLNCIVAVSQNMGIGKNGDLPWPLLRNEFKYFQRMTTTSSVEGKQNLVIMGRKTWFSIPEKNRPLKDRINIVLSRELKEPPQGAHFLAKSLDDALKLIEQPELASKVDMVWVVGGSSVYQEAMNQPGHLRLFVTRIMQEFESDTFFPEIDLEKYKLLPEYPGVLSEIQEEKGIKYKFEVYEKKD
The assay is described as follows: Inhibition of DHFR from rat liver. The class given is biochemical. The protocol: as §1

Assay [1] concerns the target T3, Pc DHFR (Pneumocystis carinii, UniProt P16184).
T3 sequence (P16184 1-206): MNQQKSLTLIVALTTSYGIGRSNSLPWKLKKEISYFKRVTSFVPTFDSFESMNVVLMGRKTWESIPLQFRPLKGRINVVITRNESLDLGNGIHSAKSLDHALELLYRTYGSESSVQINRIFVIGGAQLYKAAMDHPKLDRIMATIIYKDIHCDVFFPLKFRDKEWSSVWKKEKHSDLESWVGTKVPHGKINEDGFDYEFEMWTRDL
The assay is described as follows: biochemical.

The target in assay [2] is E-coli thymidylate synthase (ecTS) (Escherichia coli, UniProt P0A884). Put plainly: Inhibition of E. coli thymidylate synthase. The class given is biochemical. The following applies: for % in parentheses after the > value, ecTS: Table 22, at the concentration given. The protocol:
All of the compounds were tested against human cells, L. casei, E. coli, and S. faecium.

The target in assay [3] is T3, Pc DHFR. Format: biochemical. The note with it: IC50 rlDHFR/IC50 pcDHFR. On the procedure: as §1
Where [4] appears, read: Table 7, read-out: Tg DHFR IC50.
Where [5] appears, read: Table 7, read-out: RL DHFR IC50.
[6] abbreviates: Table 7, read-out: Pc DHFR IC50.
Setting [7] is: Table 25, read-out: Inhibitor Concentrations (IC50) rlDHFR.
The mark [8] stands for this setting: Table 16, read-out: Pc DHFR IC50.
Where [9] appears, read: Table 25, read-out: Inhibitor Concentrations (IC50) pcDHFR.
[10] abbreviates: Table 25, read-out: Inhibitor Concentrations (IC50) tgDHFR.
The mark [11] stands for this setting: Table 16, read-out: Tg DHFR IC50.
[12] abbreviates: Table 16, read-out: RL DHFR IC50.
[13] abbreviates: Table 22, read-out: tgDHFR IC50.
Where [14] appears, read: Table 22, read-out: rlDHFR IC50.
Where [15] appears, read: Table 22, read-out: pcDHFR IC50.

This note sets out measurements from patent US6962920B2, “Pyrimidine derivatives and methods of making and using these derivatives” (Duquesne University of the Holy Ghost, priority 1992, dated 2005).

Read-outs that look alike come from different tables or passages of the source.

E-coli thymidylate synthase (ecTS), sequence (P0A884 whole entry): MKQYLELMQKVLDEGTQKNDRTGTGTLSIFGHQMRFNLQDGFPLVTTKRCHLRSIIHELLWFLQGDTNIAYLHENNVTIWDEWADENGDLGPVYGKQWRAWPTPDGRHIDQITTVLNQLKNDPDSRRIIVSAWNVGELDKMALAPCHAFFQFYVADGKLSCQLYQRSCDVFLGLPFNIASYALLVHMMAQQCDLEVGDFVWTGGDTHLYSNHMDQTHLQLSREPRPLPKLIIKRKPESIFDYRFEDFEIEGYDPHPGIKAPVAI

`COc1ccc(NCc2c[nH]c3nc(N)nc(N)c23)cc1OC` [Compound 2, 2,4-diamino-5-[(3′,4′-dimethoxyanilino)methyl]pyrrolo[2,3-d]pyrimidine]: the results for the IC50 on Tg DHFR (setting [4]), on RL DHFR (setting [5]) and at Pc DHFR [1] (setting [6]) were 4.3 µM, 116 µM and 119 µM, respectively.
Consider `COc1ccc(OC)c(NCc2cnc3[nH]c(N)nc(N)c2-3)c1` [Compound 4, 2,4-diamino-5-[(2′,5′-dimethoxyanilino)methyl]pyrrolo[2,3-d]pyrimidine], for which the values for the IC50 at Tg DHFR (setting [4]) and at RL DHFR (setting [5]) were 1.7 µM and 156 µM, respectively.
In the case of `CCOc1ccc(OCC)c(NCc2c[nH]c3nc(N)nc(N)c23)c1` [Compound 5, 2,4-diamino-5-[(2′,5′-diethoxyanilino)methyl]pyrrolo[2,3-d]pyrimidine], the IC50 on Tg DHFR (setting [4]) is 5.3 µM; at RL DHFR (setting [5]) it was 70 µM; on Pc DHFR [1] (setting [6]), more than 21 µM.
Regarding `Nc1nc(N)c2c(CNc3ccc(Cl)c(Cl)c3)c[nH]c2n1` [Compound 6, 2,4-diamino-5-[(3′,4′dichloroanilino)methyl]pyrrolo[2,3-d]pyrimidine], the IC50 on Tg DHFR (setting [4]) amounted to 1.4 µM; on RL DHFR (setting [5]), 14.4 µM; at Pc DHFR [1] (setting [6]), 35.3 µM.
As for `Nc1nc(N)c2c(CNc3ccccc3)cnc-2[nH]1` [Compound 8, 2,4-diamino-5-(anilinomethyl)pyrrolo[2,3-d]pyrimidine], the “Selectivity Ratio: RL DHFR/Tg” value at Tg DHFR (Table 7, IC50 RL DHFR divided by IC50 Tg DHFR) is more than 65. The IC50 on Tg DHFR (setting [4]) is 3.9 µM; at RL DHFR (setting [5]) it was more than 252 µM; on Pc DHFR [1] (setting [6]) it was 252 µM. For the same molecule, the “Selectivity Ratio: RL DHFR/Pc DHFR” value at Pc DHFR [1] (Table 7, IC50 RL DHFR divided by IC50 Pc DHFR) is more than 1.
Regarding `Nc1nc(N)c2c(CSc3ccccc3)coc2n1` [Compound 159, 2-4-Diamino-5-[(phenylthio)methyl]furo[2,3-d]pyrimidine], the IC50 at RL DHFR (setting [7]) was 252 µM.
In the case of `Nc1nc(N)c2c(CSc3cccc4ccccc34)coc2n1` [Compound 160, 2,4-Diamino-5-[(1-naphthylthio)methyl]furo[2,3-d]pyrimidine], at RL DHFR (setting [7]), the IC50 worked out at 23 µM.
Consider `Nc1nc(N)c2c(CSc3ccc4ccccc4c3)coc2n1` [Compound 161, 2,4-Diamino-5-[(2-naphthylthio)methyl]furo[2,3-d]pyrimidine], for which the IC50 on RL DHFR (setting [7]) stood at 12.3 µM; on Pc DHFR [1], 0.66 µM; on Pc DHFR [1] (setting [8]) it was 0.65 µM; at Pc DHFR [1] (setting [9]) it was 0.65 µM.
Consider `Nc1nc(N)c2c(CNc3cccc4ccccc34)coc2n1` [Compound 162, 2,4-Diamino-5-[(1-naphthylamino)methyl]furo[2,3-d]pyrimidine], for which the figures for the IC50 on Tg DHFR (setting [10]), at Pc DHFR [1] (setting [8]) and at Pc DHFR [1] (setting [9]) were 37 µM, 13.5 µM and 13.5 µM, respectively.
For `Nc1nc(N)c2c(CNc3ccccc3Oc3ccccc3)coc2n1` [Compound 165, 2,4-Diamino-5-[(2′-phenoxyanilino)methyl]furo[2,3-d]pyrimidine], the IC50 on Tg DHFR (setting [11]), on Tg DHFR (setting [10]), on RL DHFR (setting [12]), at RL DHFR (setting [7]), on Pc DHFR [1] (setting [8]) and at Pc DHFR [1] (setting [9]) was more than 12 µM throughout.
Turning to `Nc1nc(N)c2c(CNc3ccc(Oc4ccccc4)cc3)coc2n1` [Compound 166, 2,4-Diamino-5-[(4′-phenoxyanilino)methyl]furo[2,3-d]pyrimidine], the IC50 at Tg DHFR (setting [11]) and at Tg DHFR (setting [10]) was 32.4 µM throughout.
For `Nc1nc(N)c2c(CNc3ccccc3-c3ccccc3)coc2n1` [Compound 167, 2,4-Diamino-5-[(2′-phenylanilino)methyl]furo[2,3-d]pyrimidine], the IC50 on RL DHFR (setting [12]) was found to be 187 µM.
On to `CN(Cc1coc2nc(N)nc(N)c12)c1ccc(Cl)c(Cl)c1` [Compound 171, 2,4-Diamino-5-[(N-methyl-3′,4′-dichloroanilino)methyl]furo[2,3-d]pyrimidine], for which the IC50 was more than 27 µM at Tg DHFR (setting [11]); more than 27 µM on Tg DHFR (setting [10]); more than 27 µM at RL DHFR (setting [12]); more than 27 µM on RL DHFR (setting [7]); 44.8 µM on Pc DHFR [1] (setting [8]); 44.8 µM on Pc DHFR [1] (setting [9]).
As for `CN(Cc1coc2nc(N)nc(N)c12)c1cc(Cl)c(Cl)c(Cl)c1` [Compound 172, 2,4-Diamino-5-[(N-methyl-3′,4′,5′-trichloroanilino)methyl]furo[2,3-d]-pyrimidine], the IC50 on Pc DHFR [1] (setting [8]) and on Pc DHFR [1] (setting [9]) was 284 µM throughout.
Regarding `COc1cccc(NCc2coc3nc(N)nc(N)c23)c1` [Compound 175, 2,4-Diamino-5-[(3′-methoxyanilino)methyl]furo[2,3-d]-pyrimidine], the IC50 on Tg DHFR (setting [11]), at Tg DHFR (setting [10]), at RL DHFR (setting [12]), on RL DHFR (setting [7]), at Pc DHFR [1] (setting [8]) and on Pc DHFR [1] (setting [9]) was more than 31.3 µM in each case.
With `COc1ccc(OC)c(NCc2c[nH]c3nc(N)nc(O)c23)c1` [Compound 408], the IC50 is 2.2 µM on Tg DHFR (setting [13]), more than 47 µM on RL DHFR (setting [14]), more than 160 µM in assay [2] and more than 47 µM on Pc DHFR [1] (setting [15]). Besides, on Tg DHFR (Table 22), the rl/tg is more than 21. Besides, the “% in parentheses after the > value, ecTS” value in assay [2] was found to be 21%.
On to `COc1cc(NCc2c[nH]c3nc(N)[nH]c(=O)c23)cc(OC)c1` [Compound 409], for which the IC50 on Tg DHFR (setting [13]) is 2.6 µM; on RL DHFR (setting [14]) it was more than 20 µM; in assay [2], more than 160 µM; at Pc DHFR [1] (setting [15]), more than 20 µM. Moreover, at Tg DHFR (Table 22), the rl/tg is more than 8. Besides, in assay [2], the “% in parentheses after the > value, ecTS” value is given as 0%.
On to `COc1ccc(NCc2c[nH]c3nc(N)[nH]c(=O)c23)c(OC)c1` [Compound 410], for which the IC50 at Tg DHFR (setting [13]) is 7.1 µM; at RL DHFR (setting [14]), more than 16 µM; in assay [2] it was more than 160 µM; on Pc DHFR [1] (setting [15]), more than 16 µM. The rl/tg at Tg DHFR (Table 22) is recorded as more than 1.4. In addition, the “% in parentheses after the > value, ecTS” value in assay [2] is recorded as 8%.
Regarding `COc1cc(NCc2c[nH]c3nc(N)nc(O)c23)cc(OC)c1OC` [Compound 411], the IC50 is 6.9 µM at Tg DHFR (setting [13]), more than 22 µM on RL DHFR (setting [14]), more than 290 µM in assay [2] and more than 22 µM at Pc DHFR [1] (setting [15]). For the same molecule, at Tg DHFR (Table 22), the rl/tg was more than 3. In addition, the “% in parentheses after the > value, ecTS” value in assay [2] is recorded as 8%.
Regarding `Nc1nc(O)c2c(CNc3cc(Cl)cc(Cl)c3)c[nH]c2n1` [Compound 413], the IC50 on Tg DHFR (setting [13]) was 3 µM; on RL DHFR (setting [14]), more than 63 µM; on Pc DHFR [1] (setting [15]), 66.2 µM. The rl/tg at Tg DHFR (Table 22) is given as more than 21.
As for `Nc1nc2[nH]cc(CNc3ccc(Cl)cc3Cl)c2c(=O)[nH]1` [Compound 414], the IC50 on Tg DHFR (setting [13]) is 2.2 µM; at RL DHFR (setting [14]) it was more than 15 µM; on Pc DHFR [1] (setting [15]), more than 15 µM. At Tg DHFR (Table 22), the rl/tg is given as more than 7.
Turning to `Nc1nc(O)c2c(CNc3cccc(Cl)c3)c[nH]c2n1` [Compound 415], the IC50 at Tg DHFR (setting [13]) was 3.5 µM; at RL DHFR (setting [14]), more than 26 µM; in assay [2], more than 180 µM; at Pc DHFR [1] (setting [15]), more than 26 µM. The rl/tg at Tg DHFR (Table 22) is on record as more than 7. For the same molecule, in assay [2], the “% in parentheses after the > value, ecTS” value came to 26%.
In the case of `COc1ccc(OC)c(Cc2cnc3nc(N)nc(N)c3c2C)c1` [PTX, piritrexim, reference compound], the IC50 at RL DHFR (setting [5]) is 0.001 µM.
As to `CCOc1cc(Cc2cnc(N)nc2N)cc(OCC)c1-n1cccc1` [epiroprim, reference compound], the Selectivity ratio rl/pc on Pc DHFR [3] turned out to be 12.8. In addition, the Selectivity ratio rl/tg at Tg DHFR (IC50 rlDHFR/IC50 tgDHFR) is listed as 70.6. For the same molecule, the IC50 on Tg DHFR (setting [10]) amounted to 0.48 µM.
